The results in this text go back to ChEMBL document CHEMBL1126095, “Incorporation of a novel conformationally restricted tyrosine analog into a cyclic, delta opioid receptor selective tetrapeptide (JOM-13) enhances delta receptor binding affinity and selectivity” (J Med Chem, 1992).

Experiment [1] concerns the target Kappa-type opioid receptor (Cavia porcellus, UniProt P41144). In words: Binding affinity against opioid receptor kappa from guinea pig brain homogenates, using [3H]U-69593 as radioligand. The class given is tissue-based.
Experiment [2] has as its target Mu-type opioid receptor (Cavia porcellus, UniProt P97266). Description: Binding affinity against opioid receptor mu in guinea pig brain homogenates, using [3H]DAMGO as radioligand. The class given is tissue-based.
The nature of experiment [3]: Binding affinity against Opioid receptor delta 1 in guinea pig brain homogenates, using [3H]DPDPE as radioligand.

Positions of bridges follow the written chain, without caps; N, C: chain ends. Non-standard residues stand in square brackets, D forms with d. Residues, ends and D or L forms follow the SMILES beside them. Pen = CC(C)(S)[C@H](N)C(=O)O

Sequence of Mu-type opioid receptor (P97266 whole entry): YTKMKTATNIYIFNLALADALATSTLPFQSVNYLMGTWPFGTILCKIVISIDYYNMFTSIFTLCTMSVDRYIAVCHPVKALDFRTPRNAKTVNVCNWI
Sequence of Kappa-type opioid receptor (P41144 whole entry): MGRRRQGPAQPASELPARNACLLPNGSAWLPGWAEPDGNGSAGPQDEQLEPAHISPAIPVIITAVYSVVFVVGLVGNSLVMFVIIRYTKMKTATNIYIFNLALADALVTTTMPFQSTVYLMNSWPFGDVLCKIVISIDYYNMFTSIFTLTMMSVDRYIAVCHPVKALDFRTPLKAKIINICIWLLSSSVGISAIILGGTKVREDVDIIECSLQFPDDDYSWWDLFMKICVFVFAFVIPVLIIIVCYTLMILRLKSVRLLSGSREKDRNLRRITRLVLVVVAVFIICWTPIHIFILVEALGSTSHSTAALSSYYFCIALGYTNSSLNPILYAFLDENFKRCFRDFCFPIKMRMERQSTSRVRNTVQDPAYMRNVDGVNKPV

In the case of `CC1(C)SSC[C@@H](NC(=O)[C@H]2NCC[C@@H]2c2ccc(O)cc2)C(=O)N[C@@H](Cc2ccccc2)C(=O)N[C@@H]1C(=O)O`, the Ki was 10 µM in experiment [1] and 0.105 µM in experiment [2].

As to `CC1(C)SSC[C@H](NC(=O)[C@@H](N)Cc2ccc(O)cc2)C(=O)N[C@@H](Cc2ccccc2)C(=O)N[C@@H]1C(=O)O` (H-YCF[Pen]-OH; disulfide 2-4), the Ki in experiment [3] was found to be 0.00179 µM.

As for `CC1(C)SSC[C@@H](NC(=O)[C@@H]2NCC[C@@H]2c2ccc(O)cc2)C(=O)N[C@@H](Cc2ccccc2)C(=O)N[C@@H]1C(=O)O`, the Ki in experiment [1] is above 10 µM; in experiment [2] it was 10 µM.

The Ki is the equilibrium dissociation constant of an inhibitor or competing ligand from its target.
